Laboratory results: ChEMBL document CHEMBL5463729, “Data for DCP probe BAY 1753011” (2023)

Key:
Conditions in all cases: Compound concentration 10.0 uM
[1] = target: Kappa-type opioid receptor (Homo sapiens, UniProt P41145)
[2] = target: BMP-2-inducible protein kinase (Homo sapiens) (UniProt Q9NSY1); test: Inhibition of BIKe(h) at 10.0 µM in the Eurofins Kinase panel
[3] = target: Bone morphogenetic protein receptor type-2 (Homo sapiens) (UniProt Q13873); test: Inhibition of BMPR2(h) at 10.0 µM in the Eurofins Kinase panel
[4] = target: Ephrin type-A receptor 2 (Homo sapiens) (UniProt P29317); test: Inhibition of EphA2(h) at 10.0 µM in the Eurofins Kinase panel
[5] = target: Casein kinase I isoform epsilon (Homo sapiens) (UniProt P49674); test: Inhibition of CK1epsilon(h) at 10.0 µM in the Eurofins Kinase panel
[6] = target: TGF-beta receptor type-1 (Homo sapiens) (UniProt P36897); test: Inhibition of TGFBR1(h) at 10.0 µM in the Eurofins Kinase panel
[7] = target: Mitogen-activated protein kinase kinase kinase kinase 5 (Homo sapiens) (UniProt Q9Y4K4); test: Inhibition of MAP4K5(h) at 10.0 µM in the Eurofins Kinase panel
[8] = target: Homeodomain-interacting protein kinase 2 (Homo sapiens) (UniProt Q9H2X6); test: Inhibition of HIPK2(h) at 10.0 µM in the Eurofins Kinase panel
[9] = target: T1, Muscarinic acetylcholine receptor M2 (Homo sapiens) (UniProt P08172)
T1 sequence (whole entry): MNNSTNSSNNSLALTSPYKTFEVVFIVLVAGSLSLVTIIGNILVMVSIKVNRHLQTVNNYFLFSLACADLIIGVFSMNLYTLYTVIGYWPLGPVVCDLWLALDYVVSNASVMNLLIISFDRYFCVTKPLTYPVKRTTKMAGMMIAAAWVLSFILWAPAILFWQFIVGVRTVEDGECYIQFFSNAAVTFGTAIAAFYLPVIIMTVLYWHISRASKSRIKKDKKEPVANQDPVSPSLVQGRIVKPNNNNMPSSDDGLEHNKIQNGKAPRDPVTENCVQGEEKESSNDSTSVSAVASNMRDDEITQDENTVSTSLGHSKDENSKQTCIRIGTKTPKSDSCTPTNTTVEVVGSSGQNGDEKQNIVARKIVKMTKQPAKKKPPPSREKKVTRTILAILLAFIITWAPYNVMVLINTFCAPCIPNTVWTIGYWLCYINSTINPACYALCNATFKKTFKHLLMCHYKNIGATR

[10] = target: MAP kinase-activated protein kinase 5 (Homo sapiens) (UniProt Q8IW41); test: Inhibition of PRAK(h) at 10.0 µM in the Eurofins Kinase panel
[11] = target: Testis-specific serine/threonine-protein kinase 1 (Homo sapiens) (UniProt Q9BXA7); test: Inhibition of TSSK1(h) at 10.0 µM in the Eurofins Kinase panel
[12] = target: Androgen receptor (Homo sapiens) (UniProt P10275)
[13] = target: Activin receptor type-1B (Homo sapiens) (UniProt P36896); test: Inhibition of ALK4(h) at 10.0 µM in the Eurofins Kinase panel
[14] = target: Mitogen-activated protein kinase 12 (Homo sapiens) (UniProt P53778); test: Inhibition of SAPK3(h) at 10.0 µM in the Eurofins Kinase panel
[15] = target: Phosphorylase b kinase gamma catalytic chain, testis/liver isoform (Homo sapiens) (UniProt P15735); test: Inhibition of PhKgamma2(h) at 10.0 µM in the Eurofins Kinase panel
[16] = target: Serine/threonine-protein kinase tousled-like 2 (Homo sapiens) (UniProt Q86UE8); test: Inhibition of TLK2(h) at 10.0 µM in the Eurofins Kinase panel
[17] = target: Rhodopsin kinase GRK1 (Homo sapiens) (UniProt Q15835); test: Inhibition of GRK1(h) at 10.0 µM in the Eurofins Kinase panel
[18] = target: Aurora kinase A (Homo sapiens) (UniProt O14965); test: Inhibition of Aurora-A(h) at 10.0 µM in the Eurofins Kinase panel
[19] = target: Mast/stem cell growth factor receptor Kit (Homo sapiens) (UniProt P10721); test: Inhibition of cKit(h) at 10.0 µM in the Eurofins Kinase panel
[20] = target: Leucine-rich repeat serine/threonine-protein kinase 2 (Homo sapiens) (UniProt Q5S007); test: Inhibition of LRRK2(h) at 10.0 µM in the Eurofins Kinase panel
[21] = target: Serine/threonine-protein kinase WNK3 (Homo sapiens) (UniProt Q9BYP7); test: Inhibition of WNK3(h) at 10.0 µM in the Eurofins Kinase panel
[22] = target: Serine/threonine-protein kinase B-raf (Homo sapiens) (UniProt P15056); test: Inhibition of B-Raf(h) at 10.0 µM in the Eurofins Kinase panel
[23] = target: Serine/threonine-protein kinase VRK1 (Homo sapiens) (UniProt Q99986); test: Inhibition of VRK1(h) at 10.0 µM in the Eurofins Kinase panel
[24] = target: Proto-oncogene tyrosine-protein kinase Src (Homo sapiens) (UniProt P12931); test: Inhibition of cSRC(h) at 10.0 µM in the Eurofins Kinase panel
[25] = target: Protein kinase C gamma type (Homo sapiens) (UniProt P05129); test: Inhibition of PKCgamma(h) at 10.0 µM in the Eurofins Kinase panel
[26] = target: T2, Alpha-1D adrenergic receptor (Homo sapiens) (UniProt P25100)
T2 sequence (whole entry): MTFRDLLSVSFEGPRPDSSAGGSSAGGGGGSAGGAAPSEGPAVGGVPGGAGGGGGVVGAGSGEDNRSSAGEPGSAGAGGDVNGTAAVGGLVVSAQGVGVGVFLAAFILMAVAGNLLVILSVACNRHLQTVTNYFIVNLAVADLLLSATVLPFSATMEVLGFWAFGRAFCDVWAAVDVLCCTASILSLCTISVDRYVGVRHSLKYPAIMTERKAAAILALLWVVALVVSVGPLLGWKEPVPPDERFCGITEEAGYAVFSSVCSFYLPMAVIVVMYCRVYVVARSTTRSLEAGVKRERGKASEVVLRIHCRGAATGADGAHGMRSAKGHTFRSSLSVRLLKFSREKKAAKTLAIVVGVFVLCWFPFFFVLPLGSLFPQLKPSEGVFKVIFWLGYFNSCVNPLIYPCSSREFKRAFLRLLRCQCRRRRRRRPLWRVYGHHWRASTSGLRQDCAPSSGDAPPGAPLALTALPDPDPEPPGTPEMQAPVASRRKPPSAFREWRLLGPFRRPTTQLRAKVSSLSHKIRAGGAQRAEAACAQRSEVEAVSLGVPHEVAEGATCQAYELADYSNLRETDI

Chain of MAP kinase-activated protein kinase 5 (Homo sapiens) (Q8IW41 whole entry): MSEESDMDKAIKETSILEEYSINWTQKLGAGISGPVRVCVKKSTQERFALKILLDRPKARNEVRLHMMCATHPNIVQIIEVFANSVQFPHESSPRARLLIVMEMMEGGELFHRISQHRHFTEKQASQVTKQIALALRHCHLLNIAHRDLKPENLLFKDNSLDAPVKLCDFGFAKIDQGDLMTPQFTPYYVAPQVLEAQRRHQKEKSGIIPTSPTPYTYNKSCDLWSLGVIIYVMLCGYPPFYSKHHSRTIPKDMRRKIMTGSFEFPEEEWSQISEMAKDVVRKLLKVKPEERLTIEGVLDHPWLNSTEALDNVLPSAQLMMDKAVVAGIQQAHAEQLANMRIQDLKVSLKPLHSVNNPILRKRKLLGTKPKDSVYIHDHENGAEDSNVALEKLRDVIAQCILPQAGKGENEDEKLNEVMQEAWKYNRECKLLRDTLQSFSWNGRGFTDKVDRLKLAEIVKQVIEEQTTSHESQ
Chain of BMP-2-inducible protein kinase (Homo sapiens) (Q9NSY1 whole entry, looked up): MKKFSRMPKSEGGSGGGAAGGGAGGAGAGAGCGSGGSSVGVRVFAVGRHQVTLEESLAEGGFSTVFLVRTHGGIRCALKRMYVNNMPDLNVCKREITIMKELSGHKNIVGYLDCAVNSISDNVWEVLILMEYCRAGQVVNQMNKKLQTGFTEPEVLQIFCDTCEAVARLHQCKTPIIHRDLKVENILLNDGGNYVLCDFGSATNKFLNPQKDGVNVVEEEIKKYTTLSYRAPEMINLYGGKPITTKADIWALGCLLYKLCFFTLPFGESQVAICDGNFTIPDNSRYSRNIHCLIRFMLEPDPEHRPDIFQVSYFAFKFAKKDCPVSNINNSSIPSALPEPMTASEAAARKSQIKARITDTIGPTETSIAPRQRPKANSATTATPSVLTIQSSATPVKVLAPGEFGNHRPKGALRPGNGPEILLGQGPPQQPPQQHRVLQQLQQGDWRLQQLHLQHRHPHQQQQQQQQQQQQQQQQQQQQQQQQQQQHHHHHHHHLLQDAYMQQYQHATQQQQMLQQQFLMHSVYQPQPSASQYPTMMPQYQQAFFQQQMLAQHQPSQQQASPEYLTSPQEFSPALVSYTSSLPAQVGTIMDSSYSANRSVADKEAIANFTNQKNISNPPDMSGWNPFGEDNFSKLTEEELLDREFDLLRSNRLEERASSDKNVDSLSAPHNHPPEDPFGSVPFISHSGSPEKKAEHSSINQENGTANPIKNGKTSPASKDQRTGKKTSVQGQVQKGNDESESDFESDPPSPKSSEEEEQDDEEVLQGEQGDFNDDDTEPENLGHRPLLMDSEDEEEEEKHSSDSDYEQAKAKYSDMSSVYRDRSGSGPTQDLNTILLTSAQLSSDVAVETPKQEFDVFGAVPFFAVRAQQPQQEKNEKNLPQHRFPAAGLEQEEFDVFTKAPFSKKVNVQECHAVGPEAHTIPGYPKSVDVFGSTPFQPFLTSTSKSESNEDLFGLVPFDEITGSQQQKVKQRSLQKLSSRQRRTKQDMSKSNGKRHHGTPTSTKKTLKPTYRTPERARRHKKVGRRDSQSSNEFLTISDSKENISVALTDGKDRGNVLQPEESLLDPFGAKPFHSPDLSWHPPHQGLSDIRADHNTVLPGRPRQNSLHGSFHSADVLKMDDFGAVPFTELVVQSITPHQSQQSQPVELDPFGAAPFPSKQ
Chain of Aurora kinase A (Homo sapiens) (O14965 whole entry): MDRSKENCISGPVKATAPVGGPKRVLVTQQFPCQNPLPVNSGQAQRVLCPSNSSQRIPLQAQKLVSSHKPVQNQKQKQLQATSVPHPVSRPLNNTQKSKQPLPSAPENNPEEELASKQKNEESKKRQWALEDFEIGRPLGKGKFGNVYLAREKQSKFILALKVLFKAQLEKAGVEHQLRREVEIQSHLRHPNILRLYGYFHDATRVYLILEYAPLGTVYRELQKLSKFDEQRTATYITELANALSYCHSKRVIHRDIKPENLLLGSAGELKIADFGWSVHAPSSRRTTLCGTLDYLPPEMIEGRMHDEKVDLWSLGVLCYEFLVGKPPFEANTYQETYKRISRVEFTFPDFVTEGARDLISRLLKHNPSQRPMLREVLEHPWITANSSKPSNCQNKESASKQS
Chain of Rhodopsin kinase GRK1 (Homo sapiens) (Q15835 whole entry): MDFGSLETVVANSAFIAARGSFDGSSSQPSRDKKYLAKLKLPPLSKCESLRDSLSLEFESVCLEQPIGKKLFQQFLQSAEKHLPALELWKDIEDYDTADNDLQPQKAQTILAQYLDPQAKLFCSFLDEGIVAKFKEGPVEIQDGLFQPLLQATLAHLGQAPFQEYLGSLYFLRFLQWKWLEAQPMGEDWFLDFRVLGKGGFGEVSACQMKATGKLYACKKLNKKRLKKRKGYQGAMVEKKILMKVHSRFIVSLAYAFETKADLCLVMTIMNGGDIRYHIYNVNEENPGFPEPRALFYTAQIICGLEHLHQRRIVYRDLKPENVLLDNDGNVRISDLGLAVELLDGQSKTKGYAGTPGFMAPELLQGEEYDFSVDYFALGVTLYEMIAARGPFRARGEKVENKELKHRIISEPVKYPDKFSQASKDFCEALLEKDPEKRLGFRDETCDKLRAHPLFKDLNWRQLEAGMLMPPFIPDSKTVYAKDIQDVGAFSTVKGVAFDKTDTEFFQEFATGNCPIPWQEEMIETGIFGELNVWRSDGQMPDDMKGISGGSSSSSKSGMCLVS
Chain of Activin receptor type-1B (Homo sapiens) (P36896 whole entry): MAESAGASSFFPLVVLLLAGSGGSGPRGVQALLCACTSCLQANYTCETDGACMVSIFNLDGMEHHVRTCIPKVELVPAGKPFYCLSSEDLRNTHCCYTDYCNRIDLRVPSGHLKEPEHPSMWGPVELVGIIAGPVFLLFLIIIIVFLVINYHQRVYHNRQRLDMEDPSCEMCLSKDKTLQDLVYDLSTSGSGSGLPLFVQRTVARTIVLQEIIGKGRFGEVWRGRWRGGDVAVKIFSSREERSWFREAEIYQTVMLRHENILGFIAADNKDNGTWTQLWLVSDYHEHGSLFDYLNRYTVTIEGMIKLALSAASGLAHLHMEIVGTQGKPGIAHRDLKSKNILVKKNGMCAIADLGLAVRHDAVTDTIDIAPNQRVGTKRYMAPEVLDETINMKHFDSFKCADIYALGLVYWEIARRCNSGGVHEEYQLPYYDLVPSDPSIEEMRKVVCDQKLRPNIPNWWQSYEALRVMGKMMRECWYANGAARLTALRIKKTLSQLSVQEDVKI
Chain of Serine/threonine-protein kinase tousled-like 2 (Homo sapiens) (Q86UE8 whole entry, looked up): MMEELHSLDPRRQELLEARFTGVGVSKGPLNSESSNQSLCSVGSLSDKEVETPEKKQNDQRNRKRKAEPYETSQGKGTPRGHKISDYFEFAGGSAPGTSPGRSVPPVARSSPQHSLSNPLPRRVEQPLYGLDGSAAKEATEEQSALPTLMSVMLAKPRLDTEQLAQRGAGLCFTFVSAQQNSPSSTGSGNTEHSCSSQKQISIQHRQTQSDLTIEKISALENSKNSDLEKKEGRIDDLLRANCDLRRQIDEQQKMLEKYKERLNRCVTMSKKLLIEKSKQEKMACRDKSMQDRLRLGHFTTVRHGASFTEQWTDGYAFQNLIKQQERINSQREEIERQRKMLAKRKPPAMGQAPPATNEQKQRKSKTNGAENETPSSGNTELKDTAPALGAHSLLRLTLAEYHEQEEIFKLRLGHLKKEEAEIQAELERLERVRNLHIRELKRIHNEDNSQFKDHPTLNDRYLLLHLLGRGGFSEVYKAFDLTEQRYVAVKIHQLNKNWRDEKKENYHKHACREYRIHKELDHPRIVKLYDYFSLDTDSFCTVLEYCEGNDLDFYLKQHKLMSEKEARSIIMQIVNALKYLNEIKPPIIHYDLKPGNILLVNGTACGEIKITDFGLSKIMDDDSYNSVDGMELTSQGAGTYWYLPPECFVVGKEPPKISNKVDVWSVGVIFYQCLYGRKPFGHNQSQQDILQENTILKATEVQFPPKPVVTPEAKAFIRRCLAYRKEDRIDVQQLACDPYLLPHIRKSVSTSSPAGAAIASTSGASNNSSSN
Chain of Casein kinase I isoform epsilon (Homo sapiens) (P49674 whole entry, looked up, canonical isoform): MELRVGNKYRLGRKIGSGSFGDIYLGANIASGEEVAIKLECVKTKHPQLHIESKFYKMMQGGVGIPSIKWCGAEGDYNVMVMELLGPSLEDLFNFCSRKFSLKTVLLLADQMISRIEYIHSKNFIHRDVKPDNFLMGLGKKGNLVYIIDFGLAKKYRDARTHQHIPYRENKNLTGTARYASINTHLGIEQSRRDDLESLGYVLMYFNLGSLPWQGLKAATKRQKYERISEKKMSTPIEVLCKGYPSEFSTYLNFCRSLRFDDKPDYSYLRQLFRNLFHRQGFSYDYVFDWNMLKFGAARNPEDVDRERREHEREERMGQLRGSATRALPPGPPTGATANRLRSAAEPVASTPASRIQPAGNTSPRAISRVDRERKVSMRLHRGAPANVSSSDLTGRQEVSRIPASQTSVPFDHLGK

| SMILES | inhibition [1] | inhibition [2] | inhibition [3] | inhibition [4] | inhibition [5] | inhibition [6] | inhibition [7] | inhibition [8] | inhibition [9] | inhibition [10] | inhibition [11] | inhibition [12] | inhibition [13] | inhibition [14] | inhibition [15] | inhibition [16] | inhibition [17] | inhibition [18] | inhibition [19] | inhibition [20] | also measured |
| --- | --- | --- | --- | --- | --- | --- | --- | --- | --- | --- | --- | --- | --- | --- | --- | --- | --- | --- | --- | --- | --- |
| O=c1n(Cc2cncn2-c2cccc(Cl)c2)nc(-c2ccc(Cl)cc2)n1C[C@H](O)C(F)(F)F | 10% | -1.55% | 14.4% | -5.2% | 4.45% | 3.39% | -1.83% | -9.36% | -9.34% | 9.81% | 7.23% | 9% | 3.01% | -3.96% | -3.49% | -6.55% | -8.45% | 12.7% | 7.72% | 10.3% | inhibition [21]: -2.58%; inhibition [22]: -2.97%; inhibition [23]: 15.7%; inhibition [24]: 0.88%; inhibition [25]: -1.26%; inhibition [26]: -1.97% |
| C[C@H](O)c1nc(Cn2nc(-c3ccc(Cl)cc3)n(C[C@H](O)C(F)(F)F)c2=O)nn1-c1cccc(Cl)c1 [PECAVAPTAN] | 19% | -0.71% | 11.1% | -2% | 1.26% | 5.09% | 6.21% | -6.27% | 4.65% | 11.4% | -5.64% | 12% | 4.03% | -0.09% | 0.74% | -5.51% | 6.58% | 11.2% | 4.28% | 5.14% | inhibition [21]: -3.44%; inhibition [22]: -4.03%; inhibition [23]: 12.3%; inhibition [24]: -5.76%; inhibition [25]: 3.24%; inhibition [26]: -0.23% |
